Drawing on BindingDB's records for doi:10.7270/Q2Z31X2S (Nmmlsc, 2009), this text covers EC50 for 40 compounds.

The first test deals with Cell division control protein 42 homolog (Homo sapiens, UniProt P60953). Nature of the test: inhibition of fluorescent GTP binding to Cdc42 wt – biochemical, bead-based multiplex flow cytometry, additional SAR set, SAR follow-up (AID 2022).
Cell division control protein 42 homolog, sequence (P60953 whole entry): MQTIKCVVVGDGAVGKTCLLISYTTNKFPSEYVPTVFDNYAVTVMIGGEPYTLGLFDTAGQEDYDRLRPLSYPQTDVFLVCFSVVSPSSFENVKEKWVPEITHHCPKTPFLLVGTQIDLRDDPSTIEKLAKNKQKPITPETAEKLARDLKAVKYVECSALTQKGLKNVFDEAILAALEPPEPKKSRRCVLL
Conditions: not given
A general note: A flow cytometer gives signals particle by particle.
With `O=C1Nc2c(Cl)cccc2C1=C1Nc2ccccc2C1=O`, it took 0.027 µM to reach a half-maximal effect (EC50).

`O=C1Nc2c(Br)cccc2C1=C1Nc2ccccc2C1=O`: the EC50 is > 30 µM.

Take `O=C1Nc2c(F)cccc2C1=C1Nc2ccccc2C1=O`: the EC50 was > 30 µM.

Regarding `O=C1NC(=O)/C(=C2/C(=O)Nc3ccccc32)N1`, the EC50 is > 30 µM.

In the case of `O=C1Nc2cccc(Br)c2/C1=C1/Cc2ccccc2C1=O`, the EC50 is > 30 µM.

For `O=C1Nc2ccc(Br)cc2C1=C1Nc2ccccc2C1=O`, the EC50 was > 30 µM.

On to `COc1ccc(S(=O)(=O)n2c(N)c(C#N)c(-c3ccccc3)c2C(=O)c2ccc(Br)cc2)cc1`, for which the EC50 is > 30 µM.

Turning to `O=[N+]([O-])c1ccc(C#Cc2ccccc2)cc1`, the EC50 is > 30 µM.

With `O=C(C#Cc1ccccc1)c1ccc(OC(F)(F)F)cc1`, the EC50 is > 30 µM.

`COc1ccc(C(=O)C#Cc2ccccc2)cc1` [1-(4-methoxyphenyl)-3-phenyl-2-propyn-1-one]: the EC50 was > 30 µM.

In the case of `O=C(C#Cc1ccccc1)c1ccc([N+](=O)[O-])cc1` [1-(4-nitrophenyl)-3-phenyl-2-propyn-1-one], the EC50 was > 30 µM.

`CC(C(=O)O)c1cccc(C(=O)c2ccccc2)c1` (stereo not given) [2-(3-benzoylphenyl)propanoic acid]: the EC50 was > 30 µM.

As to `COc1ccc2cc(CC(=O)O)ccc2c1` [2-(6-methoxynaphthalen-2-yl)ethanoic acid], the EC50 is > 30 µM.

As to `CC(=O)Oc1ccccc1C(=O)O` [2-(acetyloxy)benzoic acid], the EC50 was > 30 µM.

In the case of `O=C1Nc2ccccc2/C1=C1/Nc2ccccc2C1=O` [2-[(3Z)-2-oxo-2,3-dihydro-1H-indol-3-ylidene]-2,3-dihydro-1H-indol-3-one], the EC50 is > 30 µM.

For `CCCCS(=O)(=O)n1c(N)c(C#N)c(-c2cc(OC)c(OC)c(OC)c2)c1C(=O)c1ccccc1` [2-amino-5-benzoyl-1-butylsulfonyl-4-(3,4,5-trimethoxyphenyl)-3-pyrrolecarbonitrile], the EC50 was > 30 µM.

Turning to `COc1ccc(S(=O)(=O)n2c(N)c(C#N)c(-c3cncc(Br)c3)c2C(=O)c2ccccc2)cc1` [2-amino-5-benzoyl-4-(5-bromo-3-pyridinyl)-1-(4-methoxyphenyl)sulfonyl-3-pyrrolecarbonitrile], the EC50 was 22.8 µM.

Regarding `COc1cc(-c2c(C#N)c(N)n(S(=O)(=O)c3c(C(C)C)cc(C(C)C)cc3C(C)C)c2C(=O)c2ccccc2)cc(OC)c1OC` [2-azanyl-5-(phenylcarbonyl)-4-(3,4,5-trimethoxyphenyl)-1-[2,4,6-tri(propan-2-yl)phenyl]sulfonyl-pyrrole-3-carbonitrile], the EC50 is > 30 µM.

Regarding `O=C1N=c2ccccc2=C1c1[nH]c2ccccc2c1NO` [3-[3-(hydroxyamino)-1H-indol-2-yl]-2-indolone], the EC50 was > 30 µM.

Turning to `O=C(C#Cc1ccccc1)c1cccnc1` [3-phenyl-1-pyridin-3-ylprop-2-yn-1-one], the EC50 is > 30 µM.

On to `COC(=O)c1ccc(C(=O)C#Cc2ccccc2)cc1` [4-(1-oxo-3-phenylprop-2-ynyl)benzoic acid methyl ester], for which the EC50 is > 30 µM.

On to `N#Cc1ccc(C(=O)C#Cc2ccccc2)cc1` [4-(3-phenylprop-2-ynoyl)benzenecarbonitrile], for which the EC50 is > 30 µM.

`O=C1N=c2ccc(Br)cc2=C1c1[nH]c2ccccc2c1NO` [5-bromanyl-3-[3-(oxidanylamino)-1H-indol-2-yl]indol-2-one]: the EC50 is > 30 µM.

Consider `O=C1N=c2c(Br)cccc2=C1c1[nH]c2ccccc2c1NO` [7-bromanyl-3-[3-(oxidanylamino)-1H-indol-2-yl]indol-2-one], for which the EC50 was > 30 µM.

On to `O=C1N=c2c(Cl)cccc2=C1c1[nH]c2ccccc2c1NO` [7-chloro-3-[3-(hydroxyamino)-1H-indol-2-yl]-2-indolone], for which the EC50 is > 30 µM.

For `O=C1N=c2c(F)cccc2=C1c1[nH]c2ccccc2c1NO` [7-fluoro-3-[3-(hydroxyamino)-1H-indol-2-yl]-2-indolone], the EC50 worked out at 28.1 µM.

For the compound `O=C1Nc2c(Br)cccc2/C1=C1/Cc2ccccc2C1=O` [(3E)-7-bromo-3-(3-oxo-1H-inden-2-ylidene)-1H-indol-2-one], the EC50 is > 30 µM.

In the case of `O=C1NC(=S)N/C1=C1\C(=O)Nc2ccccc21` [(3Z)-3-(5-oxo-2-sulfanylideneimidazolidin-4-ylidene)-1H-indol-2-one], the EC50 is > 30 µM.

For the compound `O=C1Nc2ccccc2/C1=C1/Cc2ccccc2C1=O` [UNM-0000305763], the EC50 is > 30 µM.

For the compound `COc1ccc(S(=O)(=O)n2c(N)c(C#N)c(-c3cc(Br)c(OC)c(OC)c3)c2C(=O)c2ccccc2)cc1` [UNM-0000305782], the EC50 is > 30 µM.

For the compound `O=C(C#Cc1ccccc1)c1ccccc1[N+](=O)[O-]` [UNM-0000306038], the EC50 is > 30 µM.

For `O=C(C#Cc1ccccc1)c1ccccc1` [UNM-0000306039], the EC50 is > 30 µM.

`O=C(C#Cc1ccccc1)c1ccc(Cl)cc1` [UNM-0000306055]: the concentration giving a half-maximal response (EC50) was > 30 µM.

For `O=C(C#Cc1ccccc1)c1ccc(F)cc1` [UNM-0000306059], the EC50 is > 30 µM.

As to `CC1=C(CC(=O)O)c2cc(F)ccc2/C1=C/c1ccc([S+](C)[O-])cc1` (stereo not given) [UNM-0000306136], the EC50 was > 30 µM.

Regarding `C[C@@H](C(=O)O)c1cccc(Oc2ccccc2)c1` [calcium;2-(3-phenoxyphenyl)propanoic acid;hydrate], the EC50 is > 30 µM.

Turning to `CSc1ccc(/C=C2/C(C)=C(CC(=O)O)c3cc(F)ccc32)cc1` [{6-Fluoro-2-methyl-3-[1-(4-methylsulfanyl-phenyl)-meth-(E)-ylidene]-3H-inden-1-yl}-acetic acid], the EC50 is > 30 µM.

The same test, now with this note: inactive by the depositor's call.
As to `COc1ccc(-c2c(C#N)c(N)n(S(C)(=O)=O)c2C(=O)c2ccccc2)cc1Br` [2-azanyl-4-(3-bromanyl-4-methoxy-phenyl)-1-methylsulfonyl-5-(phenylcarbonyl)pyrrole-3-carbonitrile], it took 11.2 µM to reach a half-maximal effect (EC50).

On to `CC(C)Cc1ccc([C@H](C)C(=O)O)cc1` [(S)-2-(4-Isobutyl-phenyl)-propionic acid], for which the response was half-maximal at 16.6 µM (EC50).

The compound `N#Cc1c(-c2ccc(Cl)cc2)c(C(=O)c2ccccc2)n(S(=O)(=O)c2ccc([N+](=O)[O-])cc2)c1N` [UNM-0000305780] had an EC50 of 7.21 µM.

What is called EC50 is the concentration giving half of the maximal effect. High values mean weaker potency, low ones greater potency.
